Reference: paper PMC12297698 (Scientific Reports, 2025)

Biological target: T1, Caspase-3 (Recombinant human Caspase-3 protein (Active)) (Homo sapiens, UniProt P42574)
T1 sequence (P42574 29-175): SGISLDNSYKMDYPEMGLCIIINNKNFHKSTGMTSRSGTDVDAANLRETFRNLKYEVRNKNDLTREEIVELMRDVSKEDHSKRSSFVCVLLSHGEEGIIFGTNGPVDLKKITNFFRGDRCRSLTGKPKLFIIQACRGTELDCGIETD
T1 sequence (P42574 176-277): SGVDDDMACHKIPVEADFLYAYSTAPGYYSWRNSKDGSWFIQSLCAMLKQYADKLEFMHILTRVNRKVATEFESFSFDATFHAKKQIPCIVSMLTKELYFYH
Experiment: SPR, Biacore T200, CM5 chip, immobilised caspase-3
Type: binding

**Q.** OC[C@H]1O[C@@H](OCCc2ccc(O)cc2)[C@H](O)[C@@H](O)[C@@H]1O [Salidroside] was tested. Which Kd did it give?
**A.** The Kd was 76.7 µM.
